# Experimental data as given in patent US9526766B2, “Potentiation of antibiotic treatment with a protein-lipid complex” (priority 2012, dated 2016).
# Read-outs that look alike come from different tables or passages of the source.
# B1: ALAFAC: non-covalent complex of alpha-lactalbumin and fatty acid (oleic acid); labeled HAMLET or HL in drawings and tables (protein, UniProt P00709 20-142, looked up)
# Alpha-lactalbumin: KQFTKCELSQLLKDIDGYGGIALPELICTMFHTSGYDTQAIVENNESTEYGLFQISNKLWCKSSQVPQSRNICDISCDKFLDDDITDDIMCAKKILDIKGIDYWLAHKALCTEKLEQWLCEKL
# modifications: complexed with oleic acid
# What was measured:
# Type in all cases: cell-based
# Streptococcus pneumoniae = experiment: MIC by broth microdilution, antibiotics with and without ALAFAC
# Method: (§1) Methodology: Minimal inhibitory concentrations (MICs) were determined in 96-well microtiter plates using the microdilution method according to approved standards of the CLSI except that Todd-Hewitt medium supplemented with 0.5% yeast extract, which yields reproducible MIC results was used as the test medium for S. pneumoniae. For the remaining species Mueller-Hinton medium was used as indicated by the CLSI standard. Each well contained two-fold dilutions of antibiotic, was seeded with a final bacterial concentration of 10^5 CFU/mL, and was incubated for 18 h at 37° C. in a Synergy II microplate reader (Biotek, Winooski, Vt.) where the OD600 was recorded every 5 minutes to monitor bacterial growth. The MIC was defined as the lowest concentration of antimicrobial agent solution at which no increase in OD600 was detected.
# In vitro susceptibility tests. Minimal inhibitory concentrations (MICs) were determined in 96-well microtiter plates using the microdilution method according to approved standards of the CLSI except that Todd-Hewitt medium supplemented with 0.5% yeast extract, which yields reproducible MIC results was used as the test medium for S. pneumoniae. MICs for A. baumanni, and M. catarrhalis were determined in MH media. Two-fold dilutions of a starting antibiotic concentration was added in triplicate into microtiter plate wells (in 96-well plates), were seeded with a final bacterial concentration of ˜10^5 colony forming units (CFU)/mL, and was incubated for 18 h in ambient air at 37° C. in a Synergy II microplate reader (Biotek, Winooski, Vt.) where the OD600 was recorded every 5 minutes to monitor bacterial growth. The MIC was defined as the lowest concentration of antimicrobial agent solution at which no increase in OD600 was detected.
# [1] = tested on: Streptococcus pneumoniae biofilms; experiment: Static biofilm model, viable counts; details: for Biofilm killing: alone or combined; for Minimum antibiotic concentration for bactericidal (>3 log10) activity on biofilms: within 4-6 hours, antibiotic alone
# Method: Methodology: Pneumococci were grown statically in CDM and S. aureus were grown in trypic soy medium to mid-logarithmic phase (OD600=0.5), washed, and resuspended in fresh pre-warmed medium to a density of 2×10^4 CFU in 500 μl volume, and suspensions were used to seed sterile round glass coverslips in the bottom of polystyrene 24-well plates with or without a substratum of confluent H292 epithelial cells. Biofilms were cultured at 34° C. in 5% CO2 for indicated times with change of culture media every 12 hours and to assess biomass and antibiotic resistance by viable counts (as described).
# Biofilms were then washed in PBS and detached by scraping the surface in the presence of 100 μL PBS followed by a rinse with 100 μL PBS. Collected cells were sonicated in a sonication water bath for 2 s followed by vortexing twice for 20 seconds at high speed and the dispersed biofilm cells were used to determine viable CFUs per ml from diluted samples plated and grown on blood agar.
# Static Biofilm Model. Pneumococci were grown in CDM to mid-logarithmic phase (OD600=0.5), washed, and resuspended in fresh pre-warmed medium to a density of 2×10^4 CFUs in 500 μl volume, and suspensions were used to seed sterile round glass coverslips in the bottom of polystyrene 24-well plates with a substratum of confluent H292 epithelial cells as described. Biofilms were cultured at 34° C. in 5% CO2 for indicated times with change of culture media every 12 hours and used for SEM studies or to assess biomass and antibiotic resistance by viable plate counts.
# Biofilms were then washed in PBS, dispersed by sonication, and collected by pipetting in 100 μL PBS followed by a rinse with 100 μL PBS. Collected cells were then vortexed twice for 20 seconds at high speed and the dispersed biofilm cells were used to determine viable CFUs per ml from diluted samples plated and grown on blood agar. Results are reported as the total number of CFUs per biofilm.
# [2] = tested on: Staphylococcus aureus biofilms; experiment: Static biofilm model, viable counts; details: for Biofilm viability: NRS 1 and NRS 384 biofilms, ALAFAC 500 μg/ml (30 μM), gentamicin 50 μg/ml (105 μM); for Biofilm viability / Biofilm bactericidal activity, reduction in viable bacteria: alone or combined; for Biofilm bactericidal activity, reduction in viable bacteria: MRSA NRS 70 and MSSA 11090306 biofilms, 24 hours, ALAFAC 200 μg/mL (12 μM), methicillin 250 μg/mL (660 μM); for Biofilm death / reduction in biofilm biomass: methicillin 1,000 μg/ml monotherapy, combination with 100 μg/ml ALAFAC; for Minimum antibiotic concentration for bactericidal (>3 log10) activity on biofilms: 12 hours, antibiotic alone
# Method: Static Biofilm Model. Staphylococci were grown in TSB to mid-logarithmic phase (OD600=0.5), washed, and resuspended in fresh pre-warmed medium to a density of 2×10^4 CFU in 500 μl volume, and suspensions were used to seed polystyrene 24-well plates. Bacteria were cultured at 37° C. for 12 hours, after which biofilms were washed with PBS to eliminate planktonic bacteria and were exposed to TSB with indicated concentrations of ALAFAC and/or antibiotics for 24 hours at 37° C. Biofilms were then washed in PBS, sonicated and detached by scraping the surface in the presence of 100 μL PBS followed by a rinse with 100 μL PBS. Collected cells were vortexed twice for 20 seconds at high speed and the dispersed biofilm cells were first observed by microscopy to ensure proper dispersion and then diluted in a 10-fold dilution series where 100 μl of each dilution was plated on blood agar plates to determine viable CFUs per ml after overnight growth at 37° C. Colony counts from plates carrying 20-200 colonies were used to determine the viable counts and are reported as the total number of colony-forming units per biofilm.
# Staphylococcus aureus = experiment: MIC by broth microdilution, antibiotics with and without ALAFAC; details: for MIC: antibiotic alone
# Method: as §1
# In vitro susceptibility tests. Minimal inhibitory concentrations (MICs) were determined in 96-well microtiter plates using the microdilution method according to approved standards of the CLSI as described previously. However, rather than Mueller-Hinton broth, Tryptic soy broth (TSB) was used for susceptibility testing as it is the common media used for Staphylococcal growth, and as it has shown more consistent results for a variety of antimicrobials when tested against Staphylococci. […] A two-fold dilution series of antibiotics in triplicate and in the presence or absence of ALAFAC was prepared in 96 well microtiter plates, and each well was seeded with a final bacterial concentration of 10^5 CFU/mL, and was incubated for 24 h at 37° C. in a Synergy 2 microplate reader (Biotek, Winooski, Vt.) where the Optical Density at 600 nm (OD600) was recorded every 5 minutes to monitor bacterial growth. The MIC was defined as the lowest concentration of antimicrobial agent solution where no increase in OD600 was detected.
# [3] = D39 48 h biofilm (8.3 log10) on epithelial substratum, 250 μg/ml ALAFAC, 100 μg/ml penicillin
# [4] = SP670 biofilm, ALAFAC 250 μg/mL, penicillin 100 μg/mL
# [5] = S. pneumoniae EF3030, agent alone
# [6] = S. pneumoniae in liquid culture
# [7] = EF3030 48 h biofilm (7.5 log), 100 μg/mL ALAFAC, 200 μg/ml gentamicin, 3 hours
molecule,measurement,setting,value
"CC1(C)S[C@@H]2[C@H](NC(=O)Cc3ccccc3)C(=O)N2[C@H]1C(=O)O [Penicillin, penicillin G]",MIC,"Streptococcus pneumoniae; Streptococcus pneumoniae, S. pneumoniae D39, agent alone, read-out: MIC",0.01 µg/mL
same,MIC,"Streptococcus pneumoniae; Streptococcus pneumoniae, S. pneumoniae EF3030, agent alone, read-out: MIC",0.01 µg/mL
same,MIC,"Streptococcus pneumoniae; Streptococcus pneumoniae, S. pneumoniae SP670 (penicillin-resistant), agent alone, read-out: MIC",4 µg/mL
same,Biofilm killing,[1]; [3],not bactericidal
same,Minimum antibiotic concentration for bactericidal (>3 log10) activity on biofilms,[1]; S. pneumoniae D39 biofilm,>5000 μg/ml
same,Minimum antibiotic concentration for bactericidal (>3 log10) activity on biofilms,[1]; S. pneumoniae SP670 biofilm,>5000 μg/ml
same,Biofilm killing,[1]; [4],almost complete resistance
gentamicin,Biofilm viability,[2],Neither ALAFAC (500 μg/ml; 30 μM) nor gentamicin (50 μg/ml; 105 μM) had any effect
same,MIC,"Streptococcus pneumoniae; S. pneumoniae D39, agent alone",16 µg/mL
same,MIC,Streptococcus pneumoniae; [5],16 µg/mL
same,MIC,Streptococcus pneumoniae; [6],16 µg/mL
same,Biofilm killing,[1]; [7],1.1 log
same,Biofilm bactericidal activity,"[1]; EF3030 48 h biofilm, gentamicin 200 or 500 μg/mL alone or with 100 μg/mL ALAFAC, 3 hours",Neither concentration of gentamicin was bactericidal
same,Minimum antibiotic concentration for bactericidal (>3 log10) activity on biofilms,[1]; S. pneumoniae D39 biofilm,>600 μg/ml
same,Minimum antibiotic concentration for bactericidal (>3 log10) activity on biofilms,[1]; S. pneumoniae EF3030 biofilm,>600 μg/ml
same,MIC,Staphylococcus aureus; S. aureus NRS1,>128 µg/mL
same,MIC,Staphylococcus aureus; S. aureus NRS384,1 µg/mL
"COc1cccc(OC)c1C(=O)N[C@@H]1C(=O)N2[C@@H]1SC(C)(C)[C@@H]2C(=O)O [Methicillin, methicillin]","Biofilm bactericidal activity, reduction in viable bacteria",[2],failed to induce bactericidal activity
same,Biofilm death / reduction in biofilm biomass,[2]; MRSA NRS70 biofilm,0.16 log10
same,Biofilm death / reduction in biofilm biomass,[2]; MSSA 11090306 biofilm,1 log10
same,Minimum antibiotic concentration for bactericidal (>3 log10) activity on biofilms,[2]; S. aureus 11090306 biofilm,>1000 μg/ml
same,Minimum antibiotic concentration for bactericidal (>3 log10) activity on biofilms,[2]; S. aureus NRS70 biofilm,>1000 μg/ml
same,MIC,"Staphylococcus aureus; Staphylococcus aureus, S. aureus 10307570, read-out: MIC",16 µg/mL
same,MIC,"Staphylococcus aureus; Staphylococcus aureus, S. aureus 11090306 (MSSA), read-out: MIC",2 µg/mL
same,MIC,"Staphylococcus aureus; Staphylococcus aureus, S. aureus NRS1, read-out: MIC",> 128 µg/mL
same,MIC,"Staphylococcus aureus; Staphylococcus aureus, S. aureus NRS70, read-out: MIC",32 µg/mL
same,MIC,"Staphylococcus aureus; Staphylococcus aureus, S. aureus NRS71, read-out: MIC",> 128 µg/mL
same,MIC,"Staphylococcus aureus; Staphylococcus aureus, S. aureus NRS100, read-out: MIC",> 128 µg/mL
same,MIC,"Staphylococcus aureus; Staphylococcus aureus, S. aureus NRS123, read-out: MIC",32 µg/mL
same,MIC,"Staphylococcus aureus; Staphylococcus aureus, S. aureus NRS384, read-out: MIC",16 µg/mL
B1,"Biofilm bactericidal activity, reduction in viable bacteria",[2],failed to induce bactericidal activity
same,Biofilm death / reduction in biofilm biomass,[2]; MRSA NRS70 biofilm,no death
same,Biofilm death / reduction in biofilm biomass,[2]; MSSA 11090306 biofilm,no death
same,Biofilm viability,[2],Neither ALAFAC (500 μg/ml; 30 μM) nor gentamicin (50 μg/ml; 105 μM) had any effect
same,MIC,"Streptococcus pneumoniae; S. pneumoniae D39, agent alone",20 µg/mL
same,MIC,Streptococcus pneumoniae; [5],20 µg/mL
same,MIC,"Streptococcus pneumoniae; S. pneumoniae JY53 (erythromycin-resistant), agent alone",20 µg/mL
same,MIC,"Streptococcus pneumoniae; S. pneumoniae SP670 (penicillin-resistant), agent alone",20 µg/mL
same,MIC,Streptococcus pneumoniae; [6],≈ 20 μg/ml
same,Biofilm killing,[1]; [3],not bactericidal
same,Biofilm killing,[1]; [7],no bactericidal activity
same,Biofilm killing,[1]; [4],almost complete resistance
same,[HL] to sensitize,"Staphylococcus aureus; 10307570, sensitive to methicillin",6 µM
same,[HL] to sensitize,"Staphylococcus aureus; 11090306, sensitive to methicillin",0 µM
same,Additional ALAFAC required for equivalent adjuvant activity,Staphylococcus aureus; Mueller Hinton broth versus TSB,approximately 20%
same,[HL] to sensitize,"Staphylococcus aureus; NRS1, sensitive to gentamicin",48 µM
same,[HL] to sensitize,"Staphylococcus aureus; NRS1, sensitive to methicillin",48 µM
same,[HL] to sensitize,"Staphylococcus aureus; NRS1, sensitive to vancomycin",18 µM
same,[HL] to sensitize,"Staphylococcus aureus; NRS70, sensitive to methicillin",3 µM
same,[HL] to sensitize,"Staphylococcus aureus; NRS71, sensitive to methicillin",54 µM
same,[HL] to sensitize,"Staphylococcus aureus; NRS100, sensitive to methicillin",18 µM
same,[HL] to sensitize,"Staphylococcus aureus; NRS123, sensitive to erythromycin",0 µM
same,[HL] to sensitize,"Staphylococcus aureus; NRS123, sensitive to methicillin",12 µM
same,[HL] to sensitize,"Staphylococcus aureus; NRS384, sensitive to erythromycin",6 µM
same,[HL] to sensitize,"Staphylococcus aureus; NRS384, sensitive to gentamicin",0 µM
same,[HL] to sensitize,"Staphylococcus aureus; NRS384, sensitive to methicillin",6 µM
same,[HL] to sensitize,"Staphylococcus aureus; NRS384, sensitive to vancomycin",0 µM
same,Concentration of ALAFAC alone without activity,Staphylococcus aureus; any of the S. aureus strains tested,"exceeding 5,000 μg/ml"
same,ALAFAC concentration required to convert all antibiotic-resistant strains to sensitivity,"Staphylococcus aureus; methicillin, gentamicin, erythromycin and vancomycin",at most 54 μM
